# Test results taken from US5321030A, “Creatine analogs having antiviral activity” (priority 1991, dated 1994).
# Like-named read-outs stand apart in the source and are kept apart here.
# Legend:
# [1] = system: Guinea Pig Cytomegalovirus, Strain 22122; assay: CPE reduction assay, guinea pig cytomegalovirus in GPE cells; assay type: cell-based; design: TI50 (CD50 ÷ ED50): unit not given here; settings: for Average CPE: virus controls 4.0
# [2] = Cytotoxicity in plaque reduction assay, Hs68 cells; assay type: cell-based; settings: human, Table 5, previous data, read-out: CD50 (the source's name)
# Description: (§1) Cytotoxicity was determined by examination of cells (located away from plaques) in infected wells which had been treated with drug.
# [3] = system: HCMV, strain C8805-37 (DHPG resistant); assay: microbe, parasite or virus in culture; assay type: cell-based, Human Cytomegalovirus; design: TI50 (CD50 ÷ ED50): unit not given beside the values; settings: for # Plaques: virus control 11.5 ± 2.1
# [4] = Cytotoxicity in plaque reduction assay, MRC-5 cells; assay type: cell-based, human; settings: human, mrc-5 cells, read-out: CD50 (the source's name)
# Description: as §1
# [5] = system: HCMV, strain C8704 (DHPG resistant); assay: microbe, parasite or virus in culture; assay type: cell-based, Human Cytomegalovirus; design: TI50 (CD50 ÷ ED50): unit not given beside the values; settings: for # Plaques: virus control 91.0 ± 8.4
# [6] = system: HCMV, strain AD-169; assay: Plaque reduction assay, HCMV strain AD-169; assay type: cell-based, Human Cytomegalovirus; design: TI50 (CD50 ÷ ED50): unit not given here; settings: for EC50: read-out: ED50 (the source's name)
# [7] = Cytotoxicity in plaque reduction assay, CV-1 cells; assay type: cell-based, African Green Monkey; settings: monkey, Table 9B, read-out: CD50 (the source's name)
# [8] = in vitro; settings: guinea pig, gpe cells
# [9] = system: Varicella-Zoster Virus, strain Oka; assay: microbe, parasite or virus in culture; assay type: cell-based; design: TI50 (CD50 ÷ ED50): unit not given beside the values
# [10] = Human betaherpesvirus 5, MRC5, DHPG 1.0 μg/ml, read-out: % Reduction
# [11] = Human betaherpesvirus 5, MRC5, DHPG 3.2 μg/ml, read-out: % Reduction
# [12] = Human betaherpesvirus 5, MRC5, DHPG 10 μg/ml, read-out: % Reduction
# [13] = Human betaherpesvirus 5, MRC5, DHPG 32 μg/ml, read-out: % Reduction
# [14] = Human alphaherpesvirus 3, CV-1, read-out: % Reduction
# [15] = Human alphaherpesvirus 3, MRC5, read-out: % Reduction
smiles,measurement,setting,value
"Nc1nc(O)c2ncn(COC(CO)CO)c2n1 [DHPG, dihydroxypropoxymethylguanine, reference compound]",EC50,"[1]; Caviid betaherpesvirus 2, GPE cells, Table 3, read-out: ED50 (the source's name)",18.4 µg/mL
same,Average CPE,[1]; DHPG 1.0 μg/ml,4.0
same,Average CPE,[1]; DHPG 3.2 μg/ml,4.0
same,Average CPE,[1]; DHPG 10 μg/ml,3.5
same,Average CPE,[1]; DHPG 32 μg/ml,0.7
same,Average CPE,[1]; DHPG 100 μg/ml,0
same,Average CPE,[1]; DHPG 320 μg/ml,0
same,Average CPE,[1]; DHPG 1000 μg/ml,0
same,TI50 (CD50 ÷ ED50),"[1]; GPE cells, Table 3",> 54
same,CC50,[2],> 1000 µg/mL
same,# Plaques,[3]; DHPG 1.0 μg/ml,13
same,# Plaques,[3]; DHPG 3.2 μg/ml,6.5
same,# Plaques,[3]; DHPG 10 μg/ml,10
same,# Plaques,[3]; DHPG 32 μg/ml,4.5
same,inhibition at 1 µg/mL,[3]; [10],0%
same,inhibition at 3.2 µg/mL,[3]; [11],43%
same,inhibition at 10 µg/mL,[3]; [12],0%
same,inhibition at 32 µg/mL,[3]; [13],61%
same,EC50,"[3]; Human betaherpesvirus 5, MRC5, MRC-5 cells, Table 7, read-out: ED50 (the source's name)",11 µg/mL
same,TI50 (CD50 ÷ ED50),"[3]; MRC-5 cells, Table 7",> 91
same,CC50,[4]; Table 4,> 100 µg/mL
same,CC50,"[4]; Table 6, previous data",> 1000 µg/mL
same,CC50,"[4]; Table 7, previous data",> 1000 µg/mL
same,CC50,"[4]; Table 9A, previous data",> 1000 µg/mL
same,# Plaques,[5]; DHPG 1.0 μg/ml,92.5
same,# Plaques,[5]; DHPG 3.2 μg/ml,85
same,# Plaques,[5]; DHPG 10 μg/ml,80
same,# Plaques,[5]; DHPG 32 μg/ml,91
same,inhibition at 1 µg/mL,[5]; [10],0%
same,inhibition at 3.2 µg/mL,[5]; [11],0%
same,inhibition at 10 µg/mL,[5]; [12],0%
same,inhibition at 32 µg/mL,[5]; [13],41%
same,EC50,"[5]; Human betaherpesvirus 5, MRC5, MRC-5 cells, Table 6, read-out: ED50 (the source's name)",> 32 µg/mL
same,EC50,"[5]; Human betaherpesvirus 5, MRC5, MRC-5 cells, Table 6, read-out: ED50, approximate value in parentheses",~41 µg/mL
same,TI50 (CD50 ÷ ED50),"[5]; MRC-5 cells, Table 6",> 24
same,TI50 (CD50 ÷ ED50),"[6]; Hs-68 cells, Table 5",> 526
same,# Plaques,"[6]; Hs-68 cells, DHPG 1.0 μg/ml, virus control 74.2 ± 8.6",68.5
same,# Plaques,"[6]; Hs-68 cells, DHPG 3.2 μg/ml, virus control 74.2 ± 8.6",7
same,# Plaques,"[6]; Hs-68 cells, DHPG .32 μg/ml, virus control 74.2 ± 8.6",100.5
same,EC50,"[6]; Human betaherpesvirus 5, AD169, Hs68, Hs-68 cells, Table 5",1.9 µg/mL
same,EC50,"[6]; Human betaherpesvirus 5, AD169, MRC5, MRC-5 cells, Table 4",3.7 µg/mL
same,TI50 (CD50 ÷ ED50),"[6]; MRC-5 cells, Table 4",> 27
same,# Plaques,"[6]; MRC-5 cells, DHPG 3.2 μg/ml, virus control 26.4 ± 5.2",15
same,# Plaques,"[6]; MRC-5 cells, DHPG 10 μg/ml, virus control 26.4 ± 5.2",0.5
same,# Plaques,"[6]; MRC-5 cells, DHPG 32 μg/ml, virus control 26.4 ± 5.2",0
same,# Plaques,"[6]; MRC-5 cells, DHPG 100 μg/ml, virus control 26.4 ± 5.2",0
same,CC50,[7],> 10 µg/mL
same,CC50,[8],> 1000 µg/mL
same,# Plaques,"[9]; CV-1 cells, DHPG 3.2 μg/ml, virus control 70.25 ± 6.9",77
same,# Plaques,"[9]; CV-1 cells, DHPG 10 μg/ml, virus control 70.25 ± 6.9",63
same,inhibition at 3.2 µg/mL,[9]; [14],0%
same,inhibition at 10 µg/mL,[9]; [14],10%
same,EC50,"[9]; Human alphaherpesvirus 3, CV-1, read-out: ED50",> 10 µg/mL
same,inhibition at 0.32 µg/mL,[9]; [15],0%
same,inhibition at 1 µg/mL,[9]; [15],0%
same,inhibition at 3.2 µg/mL,[9]; [15],0%
same,inhibition at 10 µg/mL,[9]; [15],62%
same,EC50,"[9]; Human alphaherpesvirus 3, MRC5, read-out: ED50",8 µg/mL
same,TI50 (CD50 ÷ ED50),"[9]; MRC-5 cells, Table 9A",> 125
same,# Plaques,"[9]; MRC-5 cells, DHPG 0.32 μg/ml, virus control 32.7 ± 9.3",24.5
same,# Plaques,"[9]; MRC-5 cells, DHPG 1.0 μg/ml, virus control 32.7 ± 9.3",37
same,# Plaques,"[9]; MRC-5 cells, DHPG 3.2 μg/ml, virus control 32.7 ± 9.3",25
same,# Plaques,"[9]; MRC-5 cells, DHPG 10 μg/ml, virus control 32.7 ± 9.3",12.5
